Compound: N[C@@H]1CCCN(c2c(/C=C3\SC(=O)NC3=O)cccc2-c2ccccc2)C1 [AZD1208]
Assay: relative viability (nuclei count vs DMSO), 5 days (fraction); higher = more cells survive
Procedure, shortened: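 Viability here means nuclei in treated wells divided by nuclei in vehicle wells, reported as the median across plates. Only plates with control CV below 25% and at least one doubling passed. Lung cancer cell lines in 1536-well plates were exposed to five √10-spaced library-drug doses for 5 days and counted from 4× Hoechst images in MetaXpress.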

| Cell Line | relative viability (0.08 µM) | relative viability (0.253 µM) | relative viability (0.8 µM) | relative viability (2.53 µM) | relative viability (8 µM) |
| --- | --- | --- | --- | --- | --- |
| 201T | 1.05 | 0.99 | 0.952 | 0.933 | 0.939 |
| A549 | 0.957 | 0.952 | 0.868 | 0.934 | 0.786 |
| A-427 | 1.1 | 0.972 | 0.895 | 0.962 | 0.747 |
| ABC-1 | 0.965 | 0.966 | 0.856 | 0.923 | 0.899 |
| BEN | 0.954 | 0.84 | 0.629 | 0.709 | 0.537 |
| CAL-12T | 1.01 | 1.13 | 0.967 | 1.01 | 1.05 |
| COR-L23 | 0.969 | 1.12 | 0.965 | 0.99 | 1 |
| COR-L 105 | 0.837 | 0.909 | 0.929 | 0.712 | 0.821 |
| Calu-6 | 1 | 1.1 | 0.968 | 1.04 | 0.989 |
| ChaGo-K-1 | 1.13 | 1.03 | 0.924 | 1.04 | 0.893 |
| EBC-1 | 1.02 | 1.12 | 0.93 | 0.967 | 0.957 |
| EKVX | 0.988 | 1.11 | 0.903 | 1.04 | 0.972 |
| EMC-BAC-2 | 1.23 | 0.95 | 0.917 | 0.949 | 0.754 |
| EPLC-272H | 0.983 | 0.974 | 0.861 | 0.864 | 0.742 |
| H3255 | 1.04 | 1.02 | 0.938 | 0.934 | 0.947 |
| HARA | 0.935 | 1.17 | 0.974 | 0.931 | 0.997 |
| HCC-15 | 1.01 | 1.02 | 0.879 | 0.939 | 0.805 |
| HCC-44 | 1.11 | 0.933 | 1.01 | 1.09 | 1.05 |
| HCC-78 | 1.02 | 1.02 | 0.963 | 1.02 | 1.06 |
| HCC-366 | 1 | 0.996 | 1.03 | 1.01 | 0.993 |
| HCC-827 | 1.08 | 1.08 | 1.05 | 1.08 | 1.01 |
| HOP-62 | 1.09 | 1.07 | 0.941 | 1.02 | 0.944 |
| IA-LM | 0.951 | 0.983 | 0.855 | 0.875 | 0.989 |
| LC-2-ad | 1.02 | 1.03 | 0.927 | 0.887 | 0.899 |
| LCLC-97TM1 | 0.95 | 0.885 | 0.813 | 0.852 | 0.631 |
| LCLC-103H | 1.02 | 1.04 | 0.938 | 0.773 | 0.777 |
| LK-2 | 0.882 | 0.718 | 0.63 | 0.493 | 0.42 |

| Cell Line | relative viability (0.08 µM) | relative viability (0.253 µM) | relative viability (0.8 µM) | relative viability (2.53 µM) | relative viability (8 µM) |
| --- | --- | --- | --- | --- | --- |
| LOU-NH91 | 1.02 | 0.889 | 0.954 | 0.953 | 0.892 |
| LU99A | 0.974 | 0.963 | 0.921 | 0.878 | 0.807 |
| LXF-289 | 1.05 | 1.06 | 1.01 | 1.03 | 1.12 |
| NCI-H23 | 0.968 | 1.08 | 0.902 | 0.886 | 0.842 |
| NCI-H322M | 0.94 | 0.943 | 0.943 | 0.891 | 1.04 |
| NCI-H358 | 0.904 | 0.78 | 0.798 | 0.862 | 0.729 |
| NCI-H441 | 0.937 | 1.14 | 0.896 | 0.989 | 0.736 |
| NCI-H460 | 0.997 | 1.1 | 0.962 | 0.998 | 1.03 |
| NCI-H520 | 0.938 | 1.17 | 0.943 | 0.908 | 0.754 |
| NCI-H522 | 0.975 | 0.922 | 0.816 | 0.816 | 0.769 |
| NCI-H596 | 0.908 | 0.951 | 0.844 | 0.949 | 0.677 |
| NCI-H647 | 1.02 | 1.04 | 0.891 | 0.892 | 0.788 |
| NCI-H650 | 1.09 | 0.972 | 0.833 | 0.759 | 0.73 |
| NCI-H661 | 0.993 | 1.02 | 1.04 | 0.981 | 0.93 |
| NCI-H727 | 0.891 | 0.886 | 0.777 | 0.755 | 0.827 |
| NCI-H838 | 0.938 | 0.967 | 0.841 | 0.902 | 0.844 |
| NCI-H1299 | 1.01 | 1.06 | 1.03 | 1.06 | 1.06 |
| NCI-H1355 | 1.03 | 0.983 | 0.908 | 0.876 | 0.789 |
| NCI-H1395 | 1.15 | 1 | 0.93 | 0.913 | 0.697 |
| NCI-H1437 | 1.06 | 1.13 | 1.05 | 1.03 | 0.939 |
| NCI-H1563 | 0.962 | 0.928 | 0.952 | 0.956 | 0.923 |
| NCI-H1623 | 0.984 | 0.912 | 0.764 | 0.871 | 0.746 |
| NCI-H1648 | 0.981 | 1.25 | 0.921 | 1.04 | 1.05 |
| NCI-H1650 | 0.924 | 1.1 | 0.868 | 0.898 | 0.88 |
| NCI-H1651 | 0.954 | 1.07 | 0.83 | 0.928 | 0.856 |
| NCI-H1666 | 0.992 | 1.06 | 0.881 | 0.942 | 0.959 |
| NCI-H1703 | 0.846 | 0.881 | 0.846 | 0.718 | 0.654 |

| Cell Line | relative viability (0.08 µM) | relative viability (0.253 µM) | relative viability (0.8 µM) | relative viability (2.53 µM) | relative viability (8 µM) |
| --- | --- | --- | --- | --- | --- |
| NCI-H1734 | 0.887 | 0.989 | 0.874 | 0.841 | 0.647 |
| NCI-H1755 | 0.988 | 1.07 | 0.952 | 0.983 | 0.792 |
| NCI-H1792 | 1.08 | 1.05 | 0.646 | 0.954 | 0.664 |
| NCI-H1793 | 1.02 | 1.2 | 0.794 | 1.01 | 0.673 |
| NCI-H1915 | 0.995 | 1.06 | 0.967 | 0.875 | 0.979 |
| NCI-H1944 | 0.963 | 0.898 | 0.861 | 0.822 | 0.639 |
| NCI-H1975 | 1.06 | 1.08 | 0.909 | 1.04 | 0.878 |
| NCI-H1993 | 0.931 | 0.779 | 0.808 | 0.818 | 0.733 |
| NCI-H2009 | 1.03 | 1.07 | 1.01 | 0.975 | 1 |
| NCI-H2023 | 0.863 | 1.01 | 0.86 | 0.867 | 0.769 |
| NCI-H2085 | 0.974 | 1.09 | 0.994 | 1.01 | 1.05 |
| NCI-H2087 | 0.956 | 1.18 | 0.821 | 1.01 | 1.01 |
| NCI-H2126 | 0.998 | 0.965 | 0.942 | 0.866 | 0.79 |
| NCI-H2170 | 0.99 | 0.994 | 0.945 | 0.964 | 0.64 |
| NCI-H2228 | 0.954 | 1.19 | 0.953 | 0.788 | 0.84 |
| NCI-H2342 | 1.07 | 0.944 | 0.84 | 0.945 | 0.765 |
| NCI-H2347 | 1.02 | 1.09 | 1 | 0.951 | 1.08 |
| NCI-H2405 | 1.01 | 0.938 | 0.942 | 0.964 | 0.947 |
| NCI-H3122 | 0.994 | 0.996 | 0.932 | 1.04 | 0.981 |
| PC-3 [JPC-3] | 1.05 | 1.06 | 1.08 | 1.17 | 1.08 |
| PC-14 | 1.07 | 1.11 | 0.923 | 0.996 | 0.953 |
| RERF-LC-KJ | 0.998 | 1.03 | 0.878 | 0.935 | 0.746 |
| SK-LU-1 | 0.988 | 1.15 | 0.932 | 1.05 | 0.922 |
| SK-MES-1 | 0.979 | 1.01 | 0.964 | 0.943 | 0.866 |
| SW 900 | 0.837 | 0.989 | 0.822 | 1 | 0.799 |
| SW 1573 | 0.822 | 0.899 | 0.799 | 0.807 | 0.696 |

Source: the supplement of paper PMC10307832
